Assay results from the supplement of paper PMC10307832.

Assays:
Experiment in all cases: relative viability (nuclei count vs DMSO), 5 days (fraction); higher = more cells survive
[1] = system: NCI-H1793
How it was run: (§1)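 Five library-drug doses in √10 steps were combined with a fixed anchor-drug dose, or a single drug was given alone, by pin tool to lung cancer cell lines in 1536-well plates the day after seeding. Nuclei were stained and counted after 5 days. Relative viability is the nuclei count in treated wells over that in vehicle wells, taken as the median of duplicate plates.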

[2] = system: NCI-H1944
How it was run: as §1

[3] = system: NCI-H2087
How it was run: as §1

[4] = system: NCI-H2228
How it was run: as §1

[5] = system: NCI-H2405
How it was run: as §1

[6] = system: NCI-H3122
How it was run: as §1

[7] = system: NCI-H322M
How it was run: as §1

[8] = system: NCI-H647
How it was run: as §1

[9] = system: NCI-H727
How it was run: as §1

[10] = system: RERF-LC-KJ
How it was run: as §1

[11] = system: SK-LU-1
How it was run: as §1

NC(=O)Nc1cc(-c2cccc(F)c2)sc1C(=O)N[C@H]1CCCNC1 [AZD7762] + Cc1nc(Nc2ncc(C(=O)Nc3c(C)cccc3Cl)s2)cc(N2CCN(CCO)CC2)n1 [Dasatinib] (partner 0.075 µM)
relative viability ([1]; first compound 0.01 µM): 0.408
relative viability ([1]; first compound 0.03162 µM): 0.388
relative viability ([1]; first compound 0.1 µM): 0.426
relative viability ([1]; first compound 0.3162 µM): 0.482
relative viability ([1]; first compound 1 µM): 0.276
relative viability ([2]; first compound 0.01 µM): 0.231
relative viability ([2]; first compound 0.03162 µM): 0.238
relative viability ([2]; first compound 0.1 µM): 0.252
relative viability ([2]; first compound 0.3162 µM): 0.256
relative viability ([2]; first compound 1 µM): 0.232
relative viability ([3]; first compound 0.01 µM): 0.887
relative viability ([3]; first compound 0.03162 µM): 0.979
relative viability ([3]; first compound 0.1 µM): 0.919
relative viability ([3]; first compound 0.3162 µM): 0.773
relative viability ([3]; first compound 1 µM): 0.517
relative viability ([4]; first compound 0.01 µM): 0.67
relative viability ([4]; first compound 0.03162 µM): 0.606
relative viability ([4]; first compound 0.1 µM): 0.373
relative viability ([4]; first compound 0.3162 µM): 0.204
relative viability ([4]; first compound 1 µM): 0.125
relative viability ([5]; first compound 0.01 µM): 0.234
relative viability ([5]; first compound 0.03162 µM): 0.216
relative viability ([5]; first compound 0.1 µM): 0.228
relative viability ([5]; first compound 0.3162 µM): 0.157
relative viability ([5]; first compound 1 µM): 0.177
relative viability ([6]; first compound 0.01 µM): 0.893
relative viability ([6]; first compound 0.03162 µM): 0.739
relative viability ([6]; first compound 0.1 µM): 0.823
relative viability ([6]; first compound 0.3162 µM): 0.544
relative viability ([6]; first compound 1 µM): 0.625
relative viability ([7]; first compound 0.01 µM): 0.258
relative viability ([7]; first compound 0.03162 µM): 0.237
relative viability ([7]; first compound 0.1 µM): 0.286
relative viability ([7]; first compound 0.3162 µM): 0.279
relative viability ([7]; first compound 1 µM): 0.256
relative viability ([8]; first compound 0.01 µM): 0.214
relative viability ([8]; first compound 0.03162 µM): 0.184
relative viability ([8]; first compound 0.1 µM): 0.197
relative viability ([8]; first compound 0.3162 µM): 0.143
relative viability ([8]; first compound 1 µM): 0.0925
relative viability ([9]; first compound 0.01 µM): 0.374
relative viability ([9]; first compound 0.03162 µM): 0.422
relative viability ([9]; first compound 0.1 µM): 0.35
relative viability ([9]; first compound 0.3162 µM): 0.284
relative viability ([9]; first compound 1 µM): 0.191
relative viability ([10]; first compound 0.01 µM): 0.847
relative viability ([10]; first compound 0.03162 µM): 0.896
relative viability ([10]; first compound 0.1 µM): 0.858
relative viability ([10]; first compound 0.3162 µM): 0.782
relative viability ([10]; first compound 1 µM): 0.563
relative viability ([11]; first compound 0.01 µM): 0.183
relative viability ([11]; first compound 0.03162 µM): 0.158
relative viability ([11]; first compound 0.1 µM): 0.108
relative viability ([11]; first compound 0.3162 µM): 0.126
relative viability ([11]; first compound 1 µM): 0.128
